Reference: ChEMBL document CHEMBL5252555, “Antimicrobial Polyketides from the Marine-Derived Fungus Spiromastix sp. SCSIO F190” (J Nat Prod, 2023)
In brackets after ≈: the same amount, converted by molar mass. Activity calls are given as the source filed them. The calls are words filed in the database; no cut-off is given here.

Key:
Enterococcus faecium [1] = test: Antibacterial activity against Enterococcus faecium 35682 assessed as inhibition of bacterial growth incubated for 18 hrs by broth microdilution method; format: functional
Staphylococcus aureus [2] = test: Antibacterial activity against Staphylococcus aureus 6917 assessed as inhibition of bacterial growth incubated for 18 hrs by broth microdilution method; format: functional
HUVEC = test: Cytotoxicity against HUVEC cells incubated for 48 hrs by CCK-8 assay; format: toxicity, cell-based; conditions: human
MCF7 = test: Cytotoxicity against human MCF7 cells incubated for 48 hrs by CCK-8 assay; format: functional, cell-based
Enterococcus faecium [3] = test: Antibacterial activity against Enterococcus faecium 36235 assessed as inhibition of bacterial growth incubated for 18 hrs by broth microdilution method; format: functional
Enterococcus faecalis [4] = test: Antibacterial activity against Enterococcus faecalis 36950 assessed as inhibition of bacterial growth incubated for 18 hrs by broth microdilution method; format: functional
Bacillus subtilis = test: Antibacterial activity against Bacillus subtilis BS01 assessed as inhibition of bacterial growth incubated for 18 hrs by broth microdilution method; format: functional
Staphylococcus simulans = test: Antibacterial activity against Staphylococcus simulans AKA1 assessed as inhibition of bacterial growth incubated for 18 hrs by broth microdilution method; format: functional
Staphylococcus aureus [5] = test: Antibacterial activity against Staphylococcus aureus ATCC 29213 assessed as inhibition of bacterial growth incubated for 18 hrs by broth microdilution method; format: functional
HepG2 = test: Cytotoxicity against human HepG2 cells incubated for 48 hrs by CCK-8 assay; format: functional, cell-based
RBE = test: Cytotoxicity against human RBE cells incubated for 48 hrs by CCK-8 assay; format: functional, cell-based
Micrococcus luteus = test: Antibacterial activity against Micrococcus luteus ML01 assessed as inhibition of bacterial growth incubated for 18 hrs by broth microdilution method; format: functional
Staphylococcus aureus [6] = test: Antibacterial activity against Staphylococcus aureus 718306 assessed as inhibition of bacterial growth incubated for 18 hrs by broth microdilution method; format: functional
[7] = Cytotoxicity against human LX2 cells incubated for 48 hrs by CCK-8 assay; format: toxicity, cell-based; conditions: lx-2, 48 h
Staphylococcus aureus [8] = test: Antibacterial activity against Staphylococcus aureus 3090 assessed as inhibition of bacterial growth incubated for 18 hrs by broth microdilution method; format: functional
Enterococcus faecalis [9] = test: Antibacterial activity against Enterococcus faecalis ATCC 29212 assessed as inhibition of bacterial growth incubated for 18 hrs by broth microdilution method; format: functional
HeLa = test: Cytotoxicity against human HeLa cells incubated for 48 hrs by CCK-8 assay; format: functional, cell-based
Staphylococcus aureus [10] = test: Antibacterial activity against Staphylococcus aureus 1862 assessed as inhibition of bacterial growth incubated for 18 hrs by broth microdilution method; format: functional
Staphylococcus aureus [11] = test: Antibacterial activity against Staphylococcus aureus 991 assessed as inhibition of bacterial growth incubated for 18 hrs by broth microdilution method; format: functional
HCT-116 = test: Cytotoxicity against human HCT-116 cells incubated for 48 hrs by CCK-8 assay; format: functional, cell-based
Staphylococcus aureus [12] = test: Antibacterial activity against Staphylococcus aureus 16339 assessed as inhibition of bacterial growth incubated for 18 hrs by broth microdilution method; format: functional
Staphylococcus aureus [13] = test: Antibacterial activity against Staphylococcus aureus GDE4P037P assessed as inhibition of bacterial growth incubated for 18 hrs by broth microdilution method; format: functional
Staphylococcus aureus [14] = test: Antibacterial activity against Staphylococcus aureus 16162 assessed as inhibition of bacterial growth incubated for 18 hrs by broth microdilution method; format: functional
Staphylococcus aureus [15] = test: Antibacterial activity against Staphylococcus aureus 669 assessed as inhibition of bacterial growth incubated for 18 hrs by broth microdilution method; format: functional
A549 = test: Cytotoxicity against human A549 cells incubated for 48 hrs by CCK-8 assay; format: functional, cell-based
Staphylococcus aureus [16] = test: Antibacterial activity against Staphylococcus aureus 745324 assessed as inhibition of bacterial growth incubated for 18 hrs by broth microdilution method; format: functional
Enterococcus faecium [17] = test: Antibacterial activity against Enterococcus faecium 36711 assessed as inhibition of bacterial growth incubated for 18 hrs by broth microdilution method; format: functional
Staphylococcus aureus [18] = test: Antibacterial activity against methicillin-resistant Staphylococcus aureus assessed as inhibition of bacterial growth incubated for 18 hrs by broth microdilution method; format: functional
Enterococcus gallinarum = test: Antibacterial activity against Enterococcus gallinarum 5F52C assessed as inhibition of bacterial growth incubated for 18 hrs by broth microdilution method; format: functional

Row | Structure (SMILES) | MIC (Enterococcus faecium [1]) [µg/mL] | MIC (Staphylococcus aureus [2]) [µg/mL] | MIC (Enterococcus faecium [3]) [µg/mL] | MIC (Enterococcus faecalis [4]) [µg/mL] | MIC (Bacillus subtilis) [µg/mL] | MIC (Staphylococcus simulans) [µg/mL] | MIC (Staphylococcus aureus [5]) [µg/mL] | MIC (Micrococcus luteus) [µg/mL] | MIC (Staphylococcus aureus [6]) [µg/mL] | MIC (Staphylococcus aureus [8]) [µg/mL] | MIC (Enterococcus faecalis [9]) [µg/mL] | MIC (Staphylococcus aureus [10]) [µg/mL] | MIC (Staphylococcus aureus [11]) [µg/mL] | MIC (Staphylococcus aureus [12]) [µg/mL] | MIC (Staphylococcus aureus [13]) [µg/mL] | MIC (Staphylococcus aureus [14]) [µg/mL] | MIC (Staphylococcus aureus [15]) [µg/mL] | MIC (Staphylococcus aureus [16]) [µg/mL] | MIC (Enterococcus faecium [17]) [µg/mL] | MIC (Staphylococcus aureus [18]) [µg/mL] | other results
1 | CCCc1c(Cl)c(OC)c(Cl)c(Oc2c(Cl)c(O)c(Cl)c3c2C(=O)O[C@H](C)C3)c1OC | 32 (≈ 62.7 µM) | 8 (≈ 15.7 µM) | 16 (≈ 31.4 µM) | 4 (≈ 7.84 µM) | 2 (≈ 3.92 µM) | 4 (≈ 7.84 µM) | 4 (≈ 7.84 µM) | 2 (≈ 3.92 µM) | 8 (≈ 15.7 µM) | 4 (≈ 7.84 µM) | 8 (≈ 15.7 µM) | 4 (≈ 7.84 µM) | 4 (≈ 7.84 µM) | 4 (≈ 7.84 µM) | 8 (≈ 15.7 µM) | 4 (≈ 7.84 µM) | 4 (≈ 7.84 µM) | 4 (≈ 7.84 µM) | 8 (≈ 15.7 µM) | 4 (≈ 7.84 µM) | Activity (HUVEC): Non-Toxic; Activity (MCF7): inactive; Activity (HepG2): inactive; Activity (RBE): inactive; Activity [7]: Non-Toxic; Activity (HeLa): inactive; Activity (HCT-116): inactive; Activity (A549): inactive; MIC (Enterococcus gallinarum): 4 µg/mL (≈ 7.84 µM)
2 | CCCc1c(Cl)c(OC)cc2c1Oc1c(Cl)c(O)c(Cl)c(CCC)c1C(=O)O2 | 8 (≈ 17.9 µM) | 4 (≈ 8.97 µM) | 4 (≈ 8.97 µM) | 0.5 (≈ 1.12 µM) | 0.5 (≈ 1.12 µM) | 0.5 (≈ 1.12 µM) | 4 (≈ 8.97 µM) | 1 (≈ 2.24 µM) | 2 (≈ 4.49 µM) | 2 (≈ 4.49 µM) | 2 (≈ 4.49 µM) | 2 (≈ 4.49 µM) | 2 (≈ 4.49 µM) | 2 (≈ 4.49 µM) | 4 (≈ 8.97 µM) | 2 (≈ 4.49 µM) | 4 (≈ 8.97 µM) | 4 (≈ 8.97 µM) | 2 (≈ 4.49 µM) | 2 (≈ 4.49 µM) | MIC (Enterococcus gallinarum): 2 µg/mL (≈ 4.49 µM)
3 | CCCc1c(Cl)c(OC)c(Cl)c2c1Oc1c(Cl)c(O)c(Cl)c(CCC)c1C(=O)O2 | 2 (≈ 4.17 µM) | 2 (≈ 4.17 µM) | 2 (≈ 4.17 µM) | 0.25 (≈ 0.521 µM) | 0.125 (≈ 0.26 µM) | 0.25 (≈ 0.521 µM) | 4 (≈ 8.33 µM) | 0.5 (≈ 1.04 µM) | 2 (≈ 4.17 µM) | 1 (≈ 2.08 µM) | 1 (≈ 2.08 µM) | 1 (≈ 2.08 µM) | 1 (≈ 2.08 µM) | 1 (≈ 2.08 µM) | 2 (≈ 4.17 µM) | 1 (≈ 2.08 µM) | 1 (≈ 2.08 µM) | 2 (≈ 4.17 µM) | 2 (≈ 4.17 µM) | 1 (≈ 2.08 µM) | MIC (Enterococcus gallinarum): 1 µg/mL (≈ 2.08 µM)
